In one experiment the test system is Candida albicans. Put plainly: microbe, parasite or virus in culture. The conditions noted are these: ATCC 90028, ASSAY_TEST Inhibition of Fungal Growth, detection method Absorption (OD530), plate type 384well, NBS, CORNING #3640.
Another experiment concerns Escherichia coli. Put plainly: microbe, parasite or virus in culture. The conditions noted are these: ATCC 25922, 18 h, ASSAY_TEST Inhibition of Bacterial Growth, detection method Absorption (OD600), MEDIA CAMHB, plate type 384well, NBS, CORNING #3640.
Experiment [1] deals with Pseudomonas aeruginosa. Put plainly: Antibacterial activity against Pseudomonas aeruginosa PAO397 [PAO1 d(mexAB-oprM) d(mexCD-oprJ) d(mexEF-oprN) d(mexJKL) d(mexXY) d(opmH)] (CO-ADD:GN_211); MIC in CAMBH media using NBS plates, by OD(600). The format is functional. Conditions: ASSAY_TEST Inhibition of Bacterial Growth, detection method Absorption (OD600), MEDIA CAMHB, plate type 384well, CORNING #3640, time 18 hr.

The next experiment concerns Acinetobacter baumannii. Put plainly: microbe, parasite or virus in culture. The conditions noted are these: ATCC 19606, 18 h, ASSAY_TEST Inhibition of Bacterial Growth, detection method Absorption (OD600), MEDIA CAMHB, plate type 384well, NBS, CORNING #3640.
The next experiment concerns Staphylococcus aureus. Put plainly: microbe, parasite or virus in culture. The conditions noted are these: ATCC 43300, 18 h, ASSAY_TEST Inhibition of Bacterial Growth, detection method Absorption (OD600), MEDIA CAMHB, plate type 384well, NBS, CORNING #3640.
In another experiment the test system is Klebsiella pneumoniae. Put plainly: microbe, parasite or virus in culture. The conditions noted are these: ATCC 700603, 18 h, ASSAY_TEST Inhibition of Bacterial Growth, detection method Absorption (OD600), MEDIA CAMHB, plate type 384well, NBS, CORNING #3640.
The test system of experiment [2] is Pseudomonas aeruginosa. The experiment is described as follows: microbe, parasite or virus in culture. The conditions noted are these: ATCC 27853, 18 h, ASSAY_TEST Inhibition of Bacterial Growth, detection method Absorption (OD600), MEDIA CAMHB, plate type 384well, NBS, CORNING #3640.
Description: Antibacterial activity against Pseudomonas aeruginosa ATCC 27853 (CO-ADD:GN_042); MIC in CAMBH media using NBS plates, by OD(600)
The test system of a further experiment is HEK293. Put plainly: cells. The format is functional, Homo sapiens, ATCC CRL1573. Conditions: Homo sapiens, ATCC CRL1573, HEK293; ASSAY_TEST Inhibition of Cell Viability; detection method Resazurin; Fluorescence (ex560/em590); MEDIA DMEM with 10% FBS; plate type 384well; TC; CORNING #3712; time 18 hr; read-out: CC50. (In general: The colour change of resazurin is a common sign of viable cells or microbes.)

In brackets after ≈: the same amount, converted by molar mass.

These results are taken from ChEMBL document CHEMBL4513161, “CO-ADD screening of MMV (CH) - Pandemic Response Box” (2021).

Broadly, the CC50 is the concentration giving 50% cytotoxicity.

Description for Acinetobacter baumannii: Antibacterial activity against Acinetobacter baumannii ATCC 19606 (CO-ADD:GN_034); MIC in CAMBH media using NBS plates, by OD600
Description for Candida albicans: Antifungal activity against Candida albicans ATCC 90028 (CO-ADD:FG_001); MIC in YNB media using NBS plates, by OD630
Description for Cryptococcus neoformans: Antifungal activity against Cryptococcus neoformans H99 ATCC 208821 (CO-ADD:FG_002); MIC in YNB media using NBS plates, by Resazurin OD(600-570)
Description for Escherichia coli: Antibacterial activity against Escherichia coli ATCC 25922 (CO-ADD:GN_001); MIC in CAMBH media using NBS plates, by OD(600)
Description for Klebsiella pneumoniae: Antibacterial activity against Klebsiella pneumoniae MDR ATCC 70063 (CO-ADD:GN_003); MIC in CAMBH media using NBS plates, by OD(600)
Description for Staphylococcus aureus: Antibacterial activity against Staphylococcus aureus MRSA ATCC 43300 (CO-ADD:GP_020); MIC in CAMBH media, using NBS plates, by OD(600)

Consider `COc1ccc2c(c1)cc(CNC(=O)c1cc3ccccc3o1)n2CC(=O)O`, for which the MIC in the experiment on Candida albicans, in the experiment with Escherichia coli, in the experiment on Pseudomonas aeruginosa [1], against Acinetobacter baumannii, in the experiment on Staphylococcus aureus and in the experiment with Klebsiella pneumoniae was more than 20 µM each time. The MIC in the experiment on Pseudomonas aeruginosa [2] and in the experiment with Cryptococcus neoformans was more than 20 µM in each case. Moreover, the CC50 in the experiment with HEK293 was more than 20 µM.

As to `COc1cc(NC(=O)CN2C(=O)NC(c3ccccc3)(c3ccccc3)C2=O)cc(OC)c1`, the MIC in the experiment with Candida albicans, with Escherichia coli, in the experiment with Pseudomonas aeruginosa [1], with Acinetobacter baumannii, against Staphylococcus aureus and in the experiment on Klebsiella pneumoniae was more than 20 µM throughout. Further, the MIC in the experiment with Pseudomonas aeruginosa [2] and with Cryptococcus neoformans was more than 20 µM each time. The CC50 with HEK293 was more than 20 µM.

`CC(C)(C)c1cccc(-c2nc3cc(C(=N)N)ccc3[nH]2)c1O`: the MIC is more than 20 µM with Candida albicans; more than 20 µM with Escherichia coli; more than 20 µM in the experiment on Pseudomonas aeruginosa [1]; more than 20 µM with Acinetobacter baumannii; 10 µM (≈ 3.08 µg/mL) in the experiment with Staphylococcus aureus; more than 20 µM with Klebsiella pneumoniae. Also, the MIC against Pseudomonas aeruginosa [2] and in the experiment on Cryptococcus neoformans was more than 20 µM each time. The CC50 in the experiment on HEK293 is more than 20 µM.

For `CCNC(=O)Nc1cc(-c2ccccc2)c(-c2cncc(C(=O)O)c2)cn1`, the MIC against Candida albicans, in the experiment on Escherichia coli, in the experiment on Pseudomonas aeruginosa [1], in the experiment with Acinetobacter baumannii, against Staphylococcus aureus and with Klebsiella pneumoniae was more than 20 µM throughout. For the same compound, the MIC in the experiment with Pseudomonas aeruginosa [2] and in the experiment with Cryptococcus neoformans was more than 20 µM in each case. Moreover, the cytotoxic concentration (CC50) with HEK293 was more than 20 µM.

In the case of `Fc1ccc2c(/C=C/c3cccnc3)c[nH]c2c1`, the MIC against Candida albicans, against Escherichia coli, against Pseudomonas aeruginosa [1], in the experiment with Acinetobacter baumannii, in the experiment with Staphylococcus aureus and with Klebsiella pneumoniae was more than 20 µM throughout. Also, the MIC against Pseudomonas aeruginosa [2] and against Cryptococcus neoformans was more than 20 µM throughout. Also, the half-maximal cytotoxic concentration (CC50) with HEK293 was more than 20 µM.

Turning to `CCNC(=O)Nc1cc2c(-c3ccnc(C)c3)ccc(CNC(=O)OC)c2cn1`, the MIC against Candida albicans was more than 20 µM; in the experiment on Escherichia coli, more than 20 µM; against Pseudomonas aeruginosa [1] it was 2.5 µM (≈ 0.984 µg/mL); with Acinetobacter baumannii, more than 20 µM; against Staphylococcus aureus, 0.312 µM (≈ 0.123 µg/mL); in the experiment on Klebsiella pneumoniae it was more than 20 µM. Also, the MIC in the experiment on Pseudomonas aeruginosa [2] and against Cryptococcus neoformans was more than 20 µM each time. Besides, the half-maximal cytotoxic concentration (CC50) in the experiment on HEK293 is more than 20 µM.

Take `O=c1ccc2ncc(=O)n3c2n1CC3CN1CCC(NCc2cc3c(cn2)OCCC3)CC1` (stereo not given): the MIC against Candida albicans was more than 20 µM; against Escherichia coli, 2.5 µM (≈ 1.12 µg/mL); against Pseudomonas aeruginosa [1] it was not above 0.156 µM; against Acinetobacter baumannii it was 10 µM (≈ 4.49 µg/mL); against Staphylococcus aureus, 0.625 µM (≈ 0.28 µg/mL); in the experiment on Klebsiella pneumoniae, more than 20 µM. In addition, the values for the MIC with Pseudomonas aeruginosa [2] and against Cryptococcus neoformans were 20 µM (≈ 8.97 µg/mL) and more than 20 µM, respectively. The 50% cytotoxic concentration (CC50) with HEK293 is more than 20 µM.

Consider `CCOC(=O)Nc1cc(NC(C)CC(C)CN(CC)CC)c2nc(-c3ccccc3)c(-c3ccccc3)nc2n1` (stereo not given), for which the MIC in the experiment with Candida albicans, against Escherichia coli, against Pseudomonas aeruginosa [1], with Acinetobacter baumannii, in the experiment with Staphylococcus aureus and in the experiment on Klebsiella pneumoniae was more than 20 µM in each case. The MIC against Pseudomonas aeruginosa [2] and against Cryptococcus neoformans was more than 20 µM throughout. Besides, in the experiment with HEK293, the CC50 was more than 20 µM.

In the case of `CCCCSc1nc(N)c2[nH]c(=O)c(=O)n(Cc3ccccc3)c2n1`, the MIC against Candida albicans, against Escherichia coli, against Pseudomonas aeruginosa [1], in the experiment on Acinetobacter baumannii, against Staphylococcus aureus and in the experiment on Klebsiella pneumoniae was more than 20 µM in each case. Further, the MIC in the experiment with Pseudomonas aeruginosa [2] and in the experiment with Cryptococcus neoformans was more than 20 µM in each case. Also, in the experiment on HEK293, the CC50 was more than 20 µM.

As for `Fc1ccc(-n2cc(Cn3c(-c4cccc(F)c4)nc4ccccc43)nn2)cc1`, the MIC with Candida albicans, in the experiment on Escherichia coli, against Pseudomonas aeruginosa [1], with Acinetobacter baumannii, in the experiment on Staphylococcus aureus and against Klebsiella pneumoniae was more than 20 µM in each case. The MIC in the experiment on Pseudomonas aeruginosa [2] and against Cryptococcus neoformans was more than 20 µM in each case. Moreover, in the experiment on HEK293, the CC50 was more than 20 µM.
